This is an account of results in ChEMBL document CHEMBL1131774, “Synthesis of water-soluble phenytoin prodrugs” (Bioorg Med Chem Lett, 1999).

Assay type in all cases: ADME, organism-based
Settings in all cases: rat, read-out: Hydrolysis

Data set [1] is described as follows: Compound was tested for percent hydrolysis in whole blood, after a time interval of 15.0 min.
Data set [2] in a line: Compound was tested for percent hydrolysis in whole blood after a time interval of 60.0 min.
Data set [3] is described as follows: Compound was tested for percent hydrolysis in whole blood after a time interval of 2.0 min.
Data set [4] in a line: Compound was tested for percent hydrolysis in whole blood after a time interval of 180.0 min.
Data set [5] is described as follows: Compound was tested for percent hydrolysis in whole blood after a time interval of 0.5 min.
Data set [6] can be described thus: Compound was tested for percent hydrolysis in whole blood after a time interval of 7.0 min.
A short description of data set [7]: Compound was tested for percent hydrolysis in whole blood after a time interval of 5.0 min.

Take `CC(OC(=O)CCCC(=O)O)N1C(=O)NC(c2ccccc2)(c2ccccc2)C1=O` (stereo unspecified): in data set [1], the metabolised at 0.25 h was 37.2%. For the same compound, the metabolised at 1 h in data set [2] was determined as 39.6%. In addition, the metabolised at 2 min in data set [3] was 26.7%. Moreover, in data set [4], the metabolised at 3 h was determined as 45.1%. Further, the metabolised at 0.5 min in data set [5] is 15%. The metabolised at 7 min in data set [6] worked out at 36.9%.

As to `O=C(CN1CCOCC1)OCN1C(=O)NC(c2ccccc2)(c2ccccc2)C1=O`, the metabolised at 0.25 h in data set [1] amounted to 93.6%. Besides, the metabolised at 1 h in data set [2] is 99.3%. Also, the metabolised at 5 min in data set [7] was 91%. For the same compound, the metabolised at 2 min in data set [3] was found to be 80.1%. For the same compound, the metabolised at 0.5 min in data set [5] was determined as 28.7%.

Turning to `O=C(CN1CCCCC1)OCN1C(=O)NC(c2ccccc2)(c2ccccc2)C1=O`, in data set [7], the metabolised at 5 min turned out to be 97.5%. In data set [3], the metabolised at 2 min is 96.5%. Also, the metabolised at 0.5 min in data set [5] came to 49.2%.

For the compound `CC(OC(=O)CCC(=O)O)N1C(=O)NC(c2ccccc2)(c2ccccc2)C1=O` (stereo unspecified), the metabolised at 0.25 h in data set [1] turned out to be 55.9%. Besides, in data set [2], the metabolised at 1 h stood at 59.6%. For the same compound, in data set [3], the metabolised at 2 min is 42.4%. Further, the metabolised at 3 h in data set [4] came out at 69.2%. In data set [5], the metabolised at 0.5 min came to 25.7%. The metabolised at 7 min in data set [6] was 52.8%.

Take `O=C1NC(c2ccccc2)(c2ccccc2)C(=O)N1COP(=O)(O)O` [FOSPHENYTOIN SODIUM]: the metabolised at 0.25 h in data set [1] turned out to be 45.4%. The metabolised at 1 h in data set [2] is 87.5%. In addition, in data set [3], the metabolised at 2 min amounted to 11.6%. For the same compound, the metabolised at 3 h in data set [4] amounted to 95.3%. Moreover, the metabolised at 0.5 min in data set [5] stood at 7.95%. Also, in data set [6], the metabolised at 7 min came to 25%.
